{"source": "paper PMC10794144", "about": "“A novel antibiotic class targeting the lipopolysaccharide transporter” (Nature, 2024)", "key": {"[1]": {"tested_on": "A. baumannii", "experiment": "Neutropaenic mouse thigh infection model", "format": "in vivo", "conditions": "A. baumannii ACC01085, neutropenic mice, 24 h, summary table, same as average Log CFU/Thigh", "protocol": "An intramuscular inoculation of a bacterial suspension of approximately 10^6 CFU per thigh was used to induce the infection. Treatment started 2 h after infection. […] In the pneumonia model, an intratracheal inoculation of approximately 10^7 CFU per lung was used to induce the infection. Treatment started 2 h after infection. […] Standard of care antibiotic was tested at a single dose in both infection models. GraphPad Prism 8 was used for graphical presentation and to analyse data."}, "[2]": {"tested_on": "GSK-3A (second line so named)", "experiment": "Off-target screening (CEREP)", "format": "biochemical, human", "conditions": "10 µM, duplicates", "protocol": "(§1) Supplementary Table 1 │ Off-target activity screening f or MCP compou nds […]\n(§2) The assays given in the table above were conducted at Eurofins CEREP S A (Celle-Lévescault, France) and were run as single point measurements in duplicates in the presence of 10 µ M of the test compound and reported as percent inhibition of the radioligand signal or control enzymatic activity. n.d., not"}, "[3]": {"tested_on": "panel of 50 off-targets", "experiment": "Off-target activity screening, number of hits in panel of 50", "format": "binding", "conditions": "> 30% inhibition at 10 μM"}, "[4]": {"tested_on": "HEK293 cells", "experiment": "Cell-viability assay (CellTiterGlo)", "format": "cell-based", "conditions": "Homo sapiens, 24 h, 37 °C, 3.125–100 μM, n = 2", "protocol": "Compounds were prepared in serial dilutions (3.125–100 μM in 1% DMSO) and transferred to 384-well plates together with a positive (Staurosporine) and a negative (no compound) control. In total, 25 μl of HEK293 cells (ATCC; verified by short tandem repeat PCR and mycoplasma negative) (50,000 cells per ml) were added in either low-serum-containing (0.5% fetal bovine serum (FBS)) or high-serum-containing (12.5% FBS, 1% BSA) medium (Dulbecco’s modified Eagle medium (DMEM), glucose, L-glutamine). The plates were incubated for 24 h at 37 °C and a mixture of CellTiterGlo and DMEM was added to the plates. After incubation at room temperature, the luminescence signal was read using a BioTeK reader and a calculated IC50 was derived from the data."}, "[5]": {"tested_on": "S. aureus ATCC 29213", "experiment": "organism not typed", "conditions": "for RO7223280 MIC 100%: S. aureus ATCC 29213, read at 100%", "protocol": "MIC determinations were performed using the broth microdilution method and in line with CLSI guidelines M07 and M100 (refs. [37],[38]). Bacterial inocula were prepared by diluting a 0.5 McFarland suspension in CAMHB or lysogeny broth (LB) specifically for A. baylyi isolates. […] MIC values of all of the tested antibiotics were read as the lowest compound concentration inhibiting bacterial growth by naked eye or beyond which the OD600 ceased to decrease."}, "[6]": {"experiment": "Human whole blood haemolysis assay", "conditions": "human heparinated blood, 10 min 37 °C", "protocol": "For the in vitro haemolysis test, blood was provided by Roche medical services through an anonymous blood donation for research program, approved by the Ethics Committee Northwestern Switzerland and Central Switzerland (EKNZ) and collected with informed consent. Blood was collected by venipuncture in ethylenediaminetetraacetic acid (EDTA) and Li-heparin-coated tubes. Plasma was prepared from anticoagulated blood by centrifugation (2,500g; 10 min; at room temperature) and the haematocrit was measured to ensure that it was within normal reference values. Each formulation of compound in saline was added at a concentration of 8 mg ml^−1 into test tubes containing exactly 0.5 ml of heparinated blood to give a final assay volume of 1 ml and a concentration of 4 mg ml^−1 or less (following further dilutions). After incubation in a water bath for 10 min at 37 °C, the tubes were centrifuged (10 min, 1,811g at room temperature) and 100 μl of the supernatant was subsequently transferred into test tubes containing 5 ml Drabkins solution (RANDOX Laboratories) and 1 ml phosphate buffer. Haemoglobin was photometrically determined at 540 nm according to the RANDOX test-kit instructions. The results were expressed as percentage haemolysis extrapolated from an internal standard curve with 0%, 50% and 100% haemolysed blood samples."}, "[7]": {"molecular_target": "hERG (Homo sapiens, UniProt Q12809)", "sequence (Q12809 whole entry)": "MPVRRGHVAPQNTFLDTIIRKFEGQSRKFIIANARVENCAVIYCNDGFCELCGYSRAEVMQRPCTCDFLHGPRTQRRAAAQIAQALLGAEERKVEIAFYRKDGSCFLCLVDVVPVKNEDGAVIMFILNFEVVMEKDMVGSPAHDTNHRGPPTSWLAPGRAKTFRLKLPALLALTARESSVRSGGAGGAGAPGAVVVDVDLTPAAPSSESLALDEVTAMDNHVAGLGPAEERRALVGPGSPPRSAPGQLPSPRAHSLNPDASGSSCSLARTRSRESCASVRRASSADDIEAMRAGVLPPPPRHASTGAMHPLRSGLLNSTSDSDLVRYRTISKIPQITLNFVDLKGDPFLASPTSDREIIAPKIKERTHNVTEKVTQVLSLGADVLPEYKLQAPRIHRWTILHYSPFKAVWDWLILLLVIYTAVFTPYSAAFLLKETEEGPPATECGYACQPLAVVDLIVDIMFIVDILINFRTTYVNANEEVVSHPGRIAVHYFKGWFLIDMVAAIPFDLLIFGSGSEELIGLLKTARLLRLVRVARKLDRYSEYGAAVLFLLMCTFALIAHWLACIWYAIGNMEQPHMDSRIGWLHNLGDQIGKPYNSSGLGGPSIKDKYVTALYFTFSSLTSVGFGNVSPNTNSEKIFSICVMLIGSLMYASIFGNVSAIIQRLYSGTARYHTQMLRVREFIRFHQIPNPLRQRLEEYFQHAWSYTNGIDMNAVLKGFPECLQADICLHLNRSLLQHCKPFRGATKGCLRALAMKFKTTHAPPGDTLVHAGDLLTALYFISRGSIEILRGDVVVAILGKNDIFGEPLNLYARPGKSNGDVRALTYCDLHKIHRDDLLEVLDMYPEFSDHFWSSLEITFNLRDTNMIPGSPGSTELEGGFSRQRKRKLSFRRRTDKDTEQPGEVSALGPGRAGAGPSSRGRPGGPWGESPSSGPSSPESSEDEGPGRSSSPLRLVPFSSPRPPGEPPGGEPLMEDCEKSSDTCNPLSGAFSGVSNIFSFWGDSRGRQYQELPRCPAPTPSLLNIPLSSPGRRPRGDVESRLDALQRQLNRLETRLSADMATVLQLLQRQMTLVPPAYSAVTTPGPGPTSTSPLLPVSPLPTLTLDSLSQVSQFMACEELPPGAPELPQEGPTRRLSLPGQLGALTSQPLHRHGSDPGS", "experiment": "hERG"}, "[8]": {"tested_on": "GABA Cl- channel receptor", "experiment": "Off-target screening (CEREP)", "format": "binding, rat", "conditions": "10 µM, duplicates", "protocol": "as §1, §2"}, "[9]": {"tested_on": "PCP receptor", "experiment": "Off-target screening (CEREP)", "format": "binding, rat", "conditions": "10 µM, duplicates", "protocol": "as §1, §2"}, "[10]": {"tested_on": "Ca2+ channel (diltiazem site)", "experiment": "Off-target screening (CEREP)", "format": "binding, rat", "conditions": "10 µM, duplicates", "protocol": "as §1, §2"}, "[11]": {"tested_on": "GABA-A (benzodiazapine binding site)", "experiment": "Off-target screening (CEREP)", "parameters": "species or system rat", "conditions": "10 µM, duplicates", "protocol": "as §1, §2"}, "[12]": {"tested_on": "Nicotinic receptor, neuronal", "experiment": "Off-target screening (CEREP)", "format": "binding, human", "conditions": "10 µM, duplicates", "protocol": "as §1, §2"}, "[13]": {"tested_on": "Nicotinic receptor, muscle", "experiment": "Off-target screening (CEREP)", "format": "binding, human", "conditions": "10 µM, duplicates", "protocol": "as §1, §2"}, "[14]": {"experiment": "Fraction unbound in mouse plasma", "format": "in vitro ADME"}, "[15]": {"tested_on": "C. albicans ATCC 90028", "experiment": "microbe, parasite or virus in culture", "conditions": "Candida albicans, ATCC90028"}}, "note": "Marks after values point to notes of the source that are not given here.", "data": [{"smiles": "CN1C(=O)[C@H](CCCCN)NC(=O)[C@H](CCCN)NCc2cccnc2Sc2cccc(-c3ccc(C(=O)O)cc3)c2CNC(=O)[C@@H]1Cc1c[nH]c2ccccc12", "note": "[zosurabalpin]", "values": [{"measurement": "Bacterial Load (average)", "setting": "[1]; 6 mg/kg/day q6h", "result": 8.75}, {"measurement": "Bacterial Load (average)", "setting": "[1]; 20 mg/kg/day q6h", "result": 7.85}, {"measurement": "Bacterial Load (average)", "setting": "[1]; 60 mg/kg/day q6h", "result": 7.41}, {"measurement": "Bacterial Load (average)", "setting": "[1]; 100 mg/kg/day q6h", "result": 6.21}, {"measurement": "Bacterial Load (average)", "setting": "[1]; 160 mg/kg/day q6h", "result": 4.10}, {"measurement": "Bacterial Load (average)", "setting": "[1]; 240 mg/kg/day q6h", "result": 3.37}, {"measurement": "Bacterial Load (average)", "setting": "[1]; 360 mg/kg/day q6h", "result": 3.09}, {"measurement": "percent inhibition", "setting": "[2]", "result": -3, "unit": "%"}, {"measurement": "Off-target hits", "setting": "[3]", "result": "0 #"}, {"measurement": "IC50", "setting": "[4]", "result": "> 100", "unit": "µM"}, {"measurement": "RO7223280 MIC 100%", "setting": "[5]; Study LGC296813", "result": ">64", "unit": "mg/L"}, {"measurement": "RO7223280 MIC 100%", "setting": "[5]; Study LGC299544", "result": ">64", "unit": "mg/L"}, {"measurement": "RO7223280 MIC 100%", "setting": "[5]; Study LGC308175", "result": ">64", "unit": "mg/L"}, {"measurement": "MIC", "setting": "[5]; Staphylococcus aureus, ATCC29213", "result": "> 64", "unit": "mg/L"}, {"measurement": "Haemolysis", "setting": "[6]", "result": "None"}, {"measurement": "IC50", "setting": "[7]", "result": "> 20", "unit": "µM"}, {"measurement": "hERG IC20", "setting": "[7]", "result": "> 10", "unit": "µM"}, {"measurement": "percent inhibition", "setting": "[8]", "result": 1, "unit": "%"}, {"measurement": "percent inhibition", "setting": "[9]", "result": -24, "unit": "%"}, {"measurement": "percent inhibition", "setting": "[10]", "result": -11, "unit": "%"}, {"measurement": "percent inhibition", "setting": "[11]", "result": -1, "unit": "%"}, {"measurement": "percent inhibition", "setting": "[12]", "result": -11, "unit": "%"}, {"measurement": "percent inhibition", "setting": "[13]", "result": -16, "unit": "%"}, {"measurement": "fu (m), fraction unbound in mouse plasma", "setting": "[14]", "result": 37, "unit": "%"}, {"measurement": "MIC", "setting": "[15]", "result": "> 64", "unit": "mg/L"}]}]}
